Laboratory results taken from patent US9006487B2, “Amine-containing lipids and uses thereof” (Massachusetts Institute of Technology, priority 2005, dated 2015).
Several values for one entry are separate records, joined by “and”; a condition that tells them apart may be missing. Equal entries are not always repeated.

System: cos-7 cells
Assay: DNA transfection: luciferase expression relative to Lipofectamine 2000
Assay type: cell-based
Details: for Luciferase expression as a percentage of that achieved using Lipofectamine 2000: 300 ng Luciferase DNA per well; for luciferase expression (second part of table, values relative to LIPO2000): 300 ng of DNA per well
Method in brief: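 Lipid/DNA complexes, 300 ng luciferase DNA per well at 2.5-25 w/w lipid:DNA, were formed in sodium acetate/Optimem and added to overnight-seeded cos-7 cells. Luciferase was measured by Bright-Glo luminescence after 48 hours and quantified against an enzyme standard curve. Values are expressed as % of Lipofectamine 2000 at 2.5 w/w.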

[1] = lipid/DNA 2.5 w/w, luciferase assay after 48 hours
[2] = lipid/DNA 5 w/w, luciferase assay after 48 hours
[3] = lipid/DNA 10 w/w, luciferase assay after 48 hours
[4] = lipid/DNA 15 w/w, luciferase assay after 48 hours
[5] = lipid/DNA 20 w/w, luciferase assay after 48 hours
[6] = lipid/DNA 25 w/w, luciferase assay after 48 hours

Row | SMILES | Luciferase expression as a percentage of that achieved using Lipofectamine 2000 [1] | Luciferase expression as a percentage of that achieved using Lipofectamine 2000 [2] | Luciferase expression as a percentage of that achieved using Lipofectamine 2000 [3] | Luciferase expression as a percentage of that achieved using Lipofectamine 2000 [4] | Luciferase expression as a percentage of that achieved using Lipofectamine 2000 [5] | Luciferase expression as a percentage of that achieved using Lipofectamine 2000 [6] | luciferase expression (second part of table, values relative to LIPO2000) (lipid/DNA 2.5 w/w) | luciferase expression (second part of table, values relative to LIPO2000) (lipid/DNA 5 w/w) | luciferase expression (second part of table, values relative to LIPO2000) (lipid/DNA 10 w/w) | luciferase expression (second part of table, values relative to LIPO2000) (lipid/DNA 15 w/w) | luciferase expression (second part of table, values relative to LIPO2000) (lipid/DNA 20 w/w) | luciferase expression (second part of table, values relative to LIPO2000) (lipid/DNA 25 w/w) | Luciferase expression as a percentage of that achieved using Lipofectamine 2000 (lipid/DNA 2.5 w/w, 72 hours incubation before bright-glo) | Luciferase expression as a percentage of that achieved using Lipofectamine 2000 (lipid/DNA 5 w/w, 72 hours incubation before bright-glo) | Luciferase expression as a percentage of that achieved using Lipofectamine 2000 (lipid/DNA 10 w/w, 72 hours incubation before bright-glo) | Luciferase expression as a percentage of that achieved using Lipofectamine 2000 (lipid/DNA 15 w/w, 72 hours incubation before bright-glo) | Luciferase expression as a percentage of that achieved using Lipofectamine 2000 (lipid/DNA 20 w/w, 72 hours incubation before bright-glo) | Luciferase expression as a percentage of that achieved using Lipofectamine 2000 (lipid/DNA 25 w/w, 72 hours incubation before bright-glo)
1 | CCCCCCCCCCCCCCCOC(=O)CCN(CCOC)CCC(=O)OCCCCCCCCCCCCCCC [LG10] | 0.0% | 0.0% | 0.0% | 0.0% | 0.0% | 0.0% |  |  |  |  |  |  |  |  |  |  |  | 
2 | CCCCCCCCCCCCCCCOC(=O)CCN(CCOCC)CCC(=O)OCCCCCCCCCCCCCCC [LG11] | 0.0% | 0.0% | 0.0% | 0.0% | 0.0% | 0.0% |  |  |  |  |  |  |  |  |  |  |  | 
3 | CCCCCCCCCCCCCCCOC(=O)CCN(CCC(=O)OCCCCCCCCCCCCCCC)CC(OC)OC [LG13] | 0.0% | 0.0% | 0.0% | 0.0% | 0.0% | 0.0% |  |  |  |  |  |  |  |  |  |  |  | 
4 | CCCCCCCCCCCCCCCOC(=O)CCN(CCC(=O)OCCCCCCCCCCCCCCC)CC1CCCO1 (centres unmarked) [LG15] | 0.7% | 0.8% | 0.5% | 0.6% | 0.7% | 0.8% |  |  |  |  |  |  |  |  |  |  |  | 
5 | CCCCCCCCCCCCCCCOC(=O)CCN(CCC(=O)OCCCCCCCCCCCCCCC)CCc1ccc(OC)c(OC)c1 [LG17] | 0.4% | 0.3% | 0.1% | 0.0% | 0.3% | 0.3% |  |  |  |  |  |  |  |  |  |  |  | 
6 | CCCCCCCCCCCCCCCOC(=O)CCN(CCCO)CCC(=O)OCCCCCCCCCCCCCCC [LG20] | 2.0% | 2.5% | 0.4% | 0.2% | 0.1% | 0.1% |  |  |  |  |  |  |  |  |  |  |  | 
7 | CCCCCCCCCCCCCCCOC(=O)CCN(CCC(=O)OCCCCCCCCCCCCCCC)CC(C)O (centres unmarked) [LG21] | 0.1% | 0.1% | 0.1% | 0.2% | 0.2% | 0.4% |  |  |  |  |  |  |  |  |  |  |  | 
8 | CCCCCCCCCCCCCCCOC(=O)CCN(CCC(=O)OCCCCCCCCCCCCCCC)C[C@H](C)O [LG22] | 0.2% | 0.3% | 0.4% | 0.5% | 0.4% | 0.7% |  |  |  |  |  |  |  |  |  |  |  | 
9 | CCCCCCCCCCCCCCCOC(=O)CCN(CCC(=O)OCCCCCCCCCCCCCCC)CC(O)CO (centres unmarked) [LG24] | 2.0% | 3.3% | 4.8% | 11.2% | 16.4% | 32.5% |  |  |  |  |  |  |  |  |  |  |  | 
10 | CCCCCCCCCCCCCCCOC(=O)CCN(CCC(=O)OCCCCCCCCCCCCCCC)C(CO)CO [LG25] | 15.9% | 32.0% | 43.2% | 56.9% | 42.1% | 63.9% | 15.9 | 32.0 | 43.2 | 56.9 | 42.1 | 63.9 |  |  |  |  |  | 
11 | CCCCCCCCCCCCCCCOC(=O)CCN(CCC(=O)OCCCCCCCCCCCCCCC)C(C)(CO)CO [LG26] | 0.6% | 13.0% | 1.9% | 0.5% | 0.3% | 0.4% |  |  |  |  |  |  |  |  |  |  |  | 
12 | CCCCCCCCCCCCCCCOC(=O)CCN(CCCCO)CCC(=O)OCCCCCCCCCCCCCCC [LG28] | 0.2% | 0.5% | 0.2% | 0.2% | 0.1% | 0.2% |  |  |  |  |  |  |  |  |  |  |  | 
13 | CCCCCCCCCCCCCCCOC(=O)CCN(CCC(=O)OCCCCCCCCCCCCCCC)CC(C)(C)CO [LG33] | 0.1% | 0.1% | 0.1% | 0.1% | 0.1% | 0.1% |  |  |  |  |  |  |  |  |  |  |  | 
14 | CCCCCCCCCCCCCCCOC(=O)CCN(CCC(=O)OCCCCCCCCCCCCCCC)C(CC)(CO)CO [LG34] |  |  | 1.4% | 0.8% |  |  |  |  |  |  |  |  |  |  |  |  |  | 
15 | CCCCCCCCCCCCCCCOC(=O)CCN(C)CCN(C)CCC(=O)OCCCCCCCCCCCCCCC [LG60] | 0.9% | 1.0% | 0.8% | 0.9% | 0.8% | 1.0% |  |  |  |  |  |  |  |  |  |  |  | 
16 | CCCCCCCCCCCCCCCOC(=O)CCN(CC)CCN(CC)CCC(=O)OCCCCCCCCCCCCCCC [LG61] | 0.4% | 0.5% | 0.4% | 0.4% | 0.4% | 0.5% |  |  |  |  |  |  |  |  |  |  |  | 
17 | CCCCCCCCCCCCCCCOC(=O)CCN(CC)CCCN(CC)CCC(=O)OCCCCCCCCCCCCCCC [LG64] | 0.0% and 0.2% | 0.0% and 0.1% | 0.0% and 0.1% | 0.0% and 0.1% | 0.0% and 0.1% | 0.0% and 0.2% |  |  |  |  |  |  | 0.3% | 0.3% | 1.8% | 1.8% | 1.2% | 1.6%
18 | CCCCCCCCCCCCCCCOC(=O)CCN(CCCN(CC)CC)CCC(=O)OCCCCCCCCCCCCCCC [LG81] | 0.7% | 0.8% | 1.2% | 4.1% | 14.8% | 19.9% |  |  |  |  |  |  |  |  |  |  |  | 
